This is an account of results in patent US20220192956A1, “SUPERIOR EFFICACY OF AZOXYSTROBIN AND OTHER STROBILURINS” (The Procter & Gamble Company, priority 2020, published 2022).

Molecules are shown by their SMILES. In brackets after ≈: the same amount, converted by molar mass.

Data set [1] deals with Aspergillus brasiliensis (ATCC 16404). Description: In vitro antifungal potency (MIC), growth graded visually. As to conditions: spores in SDB, 25° C., approximately 96 h; for MIC: Aspergillus brasiliensis, ATCC16404, read-out: MIC (ppm) against Aspergillus brasiliensis. Format: cell-based. As for the experimental part: Aspergillus brasiliensis (ATCC 16404): Aspergillus spores are prepared by inoculating a Sabouraud agar plate and incubating at 25° C. for 6-10 days, after which, 10 mL of Saline+Tween-80 is added to dislodge the spores. The suspension is then filtered through 2 layers of sterile gauze. The spores are diluted two-fold in SDB. 190 μl of SDB is added to a Corning 3596 polystyrene plate followed by 5 μl of test compound per well and 5 μl of the diluted spores. The plates are incubated at 25° C. for approximately 96 h at high humidity. Growth is graded visually as either growth or no growth.
(§1) All compounds are sourced from Sigma Aldrich (St. Louis, Mo.) and prepared as 10 mg/ml in DMSO. A semipermeable aeraseal membrane is applied to the plate which is then covered with water-soaked cotton batting. The samples are shaken at 31° C. on a Heidolph Titramax 100 shaker at 1500 rpm for approximately 72 hours. The plates are shaken at 1250 rpm on an Eppendorf MixMate shaker to disperse the cells before 200 μl of cells is transferred to a Corning 3596 polystyrene plate. The samples are shaken again at 950 rpm on a MixMate shaker before the absorbance at 600 nm is read using a Molecular Devices SpectraMax plate reader.

Data set [2] deals with Malassezia pachydermatis (CBS 1879). Description: In vitro antifungal potency (MIC), growth read by absorbance at 600 nm. Format: cell-based. The conditions noted are these: mDixon medium, 31° C., approximately 72 hours; for MIC: Malassezia pachydermatis, CBS1879, read-out: MIC (ppm) against Malassezia pachydermatis. As for the experimental part:
(§2) Malassezia furfur (CBS 7982), Malassezia sympodialis (ATCC 42132), and Malassezia pachydermatis (CBS 1879) is grown for approximately 24 hours in a 250 ml vent cap polycarbonate Erlenmeyer flask containing approximately 100 ml of mDixon medium and 5 ml of a fully grown Malassezia culture is prepared using the same conditions as described. The cells are diluted by mixing 2.5 ml of the 24 hour-old culture per 50 ml of mDixon medium. A Versette robot (ThermoFisher Scientific) is used to transfer 292.5 μl of the dilute cells into each well of a Beckman 267007 polypropylene round bottom deep well plate.
as §1

For data set [3], the system named is Malassezia sympodialis (ATCC 42132). The description is as above. The class given is cell-based. The conditions noted are these: mDixon medium, 31° C., approximately 72 hours; for MIC: Malassezia sympodialis, ATCC42132, read-out: MIC (ppm) against Malassezia sympodialis. How it is done:
as §2, §1

For data set [4], the system named is Malassezia furfur (CBS 7982). The data set is described as above. The class given is cell-based. The conditions noted are these: for MIC (ppm) against Malassezia furfur / MIC: mDixon medium, 31° C., approximately 72 hours; for MIC: CBS7982, read-out: MIC (ppm) against Malassezia furfur. As for the experimental part:
as §2, §1

Data set [5] concerns Candida albicans (ATCC 10231). The description is as above. The class given is cell-based. As to conditions: Sabouraud Broth, 31° C., evaluated at concentrations up to 250 ppm; for MIC: Candida albicans, ATCC10231, read-out: MIC (ppm) against Candida albicans. How it is done: Candida albicans (ATCC 10231) is grown overnight in Sabouraud Broth (SDB). 190 μl of SDB is added per well of a Corning 3596 polystyrene plate followed by 5 μl of test material as two-fold dilutions in DMSO and 5 μl C. albicans. The cells are incubated at 31° C., without shaking, and wrapped in wet cotton batting. The plates are shaken for 30 seconds at 950 rpm on a MixMate shaker. The absorbance at 600 nm is read on a Spectramax plate reader.
as §1

A further data set has as its system Malassezia yeasts. Put plainly: In vitro antifungal potency (MIC), statements across the Malassezia species tested. Format: cell-based. As for the experimental part: as §2, §1
For data set [6] the following is noted: cited from earlier work.

Take `CNC(=O)/C(=N/OC)c1ccccc1CO/N=C(C)/C(=N/OC)C(/C)=N/OC` [Orysastrobin, orysastrobin]: the “MIC (ppm) against Aspergillus brasiliensis” value in data set [1] was found to be 31.25 ppm. Also, the “MIC (ppm) against Malassezia pachydermatis” value in data set [2] was determined as 125 ppm. Also, in data set [3], the “MIC (ppm) against Malassezia sympodialis” value is listed as 7.81 ppm. The “MIC (ppm) against Malassezia furfur” value in data set [4] is given as 31.25 ppm. In addition, the “times less potent than azoxystrobin (MIC against Malassezia furfur)” value in data set [4] (ratio of MICs, Malassezia furfur) was found to be 64 times. Also, the “MIC (ppm) against Candida albicans” value in data set [5] is given as above 250 ppm.
Broadly, the MIC is the lowest concentration that inhibits growth of the organism. `CO/N=C(/C(=O)OC)c1ccccc1COc1ccccc1C` [Kresoxim-methyl, kresoxim methyl]: the MIC was 0.98 µg/mL (≈ 3.13 µM) in data set [1]; 31.2 µg/mL (≈ 99.7 µM) in data set [2]; 3.91 µg/mL (≈ 12.5 µM) in data set [3]; 15.6 µg/mL (≈ 49.9 µM) in data set [4] (Malassezia furfur); above 250 µg/mL in data set [5].
For `CNC(=O)/C(=N/OC)c1ccccc1COc1cc(C)ccc1C` [Dimoxystrobin, dimoxystrobin], the “MIC (ppm) against Aspergillus brasiliensis” value in data set [1] is recorded as 0.24 ppm. In addition, in data set [2], the “MIC (ppm) against Malassezia pachydermatis” value was found to be 31.25 ppm. Moreover, the “MIC (ppm) against Malassezia sympodialis” value in data set [3] amounted to 1.95 ppm. Besides, the “MIC (ppm) against Malassezia furfur” value in data set [4] is recorded as 7.81 ppm. In addition, the “MIC (ppm) against Candida albicans” value in data set [5] is listed as above 250 ppm.
Regarding `CO/C=C(/C(=O)OC)c1ccccc1Oc1cc(Oc2ccccc2C#N)ncn1` [Azoxystrobin], the “MIC (ppm) against Aspergillus brasiliensis” value in data set [1] amounted to 0.24 ppm. Further, in data set [2], the “MIC (ppm) against Malassezia pachydermatis” value was 0.98 ppm. Further, the “MIC (ppm) against Malassezia sympodialis” value in data set [3] is reported as 0.12 ppm. In addition, the “MIC (ppm) against Malassezia furfur” value in data set [4] amounted to 0.49 ppm. Further, the “MIC against Malassezia yeasts (all species tested)” value against Malassezia yeasts (M. furfur, M. sympodialis, M. pachydermatis) is listed as “less than 1.0 ppm”. The “times more potent than pyraclostrobin (MIC against Malassezia, in all cases)” value with Malassezia yeasts (ratio of MICs, all three Malassezia species) is 4 times. Also, the “MIC (ppm) against Candida albicans” value in data set [5] is above 250 ppm. Also, the solubility in water result in data set [6] is listed as “low”.
Turning to `CO/N=C(/C1=NOCCO1)c1ccccc1Oc1ncnc(Oc2ccccc2Cl)c1F` [Fluoxastrobin, fluoxastrobin], the MIC in data set [1] is 0.49 µg/mL (≈ 1.07 µM); in data set [2] it was 7.81 µg/mL (≈ 17 µM); in data set [3] it was 1.95 µg/mL (≈ 4.25 µM); in data set [4] (Malassezia furfur), 3.91 µg/mL (≈ 8.52 µM); in data set [5] it was above 250 µg/mL.
`COC(=O)N(OC)c1ccccc1COc1ccn(-c2ccc(Cl)cc2)n1` [Pyraclostrobin, pyraclostrobin]: the MIC in data set [1] is 0.02 µg/mL (≈ 0.0516 µM); in data set [2], 3.91 µg/mL (≈ 10.1 µM); in data set [3], 0.49 µg/mL (≈ 1.26 µM); in data set [4] (Malassezia furfur) it was 1.95 µg/mL (≈ 5.03 µM); in data set [5] it was above 250 µg/mL.
For `CON=C(C(=O)OC)c1ccccc1CON=C(C)c1cccc(C(F)(F)F)c1` [Trifloxystrobin, trifloxystrobin] the same measures were 31.2 µg/mL (≈ 76.5 µM), 31.2 µg/mL (≈ 76.5 µM), 1.95 µg/mL (≈ 4.78 µM), 15.6 µg/mL (≈ 38.3 µM) and above 250 µg/mL.
